Assay: xn = mol fraction of the nth substance listed
Settings: 100 kPa

CCCCC[n+]1ccccc1.N#C[N-]C#N + O
Settings	electrical conductivity, x1 = 0.9199 [S/m]	electrical conductivity, x1 = 0.9356 [S/m]	electrical conductivity, x1 = 0.9518 [S/m]	electrical conductivity, x1 = 0.9685 [S/m]	electrical conductivity, x2 = 0.0142 [S/m]	viscosity, x1 = 0.9199 [mPa·s]	viscosity, x1 = 0.9345 [mPa·s]	viscosity, x1 = 0.9518 [mPa·s]	viscosity, x1 = 0.9674 [mPa·s]	viscosity, x2 = 0.0154 [mPa·s]
298.15 K	0.687	–	0.648	0.63	0.611	41	42.1	43.4	44.7	45.9
303.15 K	0.865	–	0.798	0.761	0.719	33.3	34.1	35.1	36	37
308.15 K	1.08	1.03	–	0.926	0.873	27.4	28.1	–	–	30.4
313.15 K	–	1.19	1.13	1.09	1.03	–	23.49	24.01	24.6	25.4
318.15 K	1.42	1.39	1.33	–	–	19.45	19.85	20.32	20.87	21.39
323.15 K	–	1.6	1.55	–	1.43	–	–	16.27	–	–
328.15 K	1.86	–	1.76	1.7	–	13.96	–	14.48	14.81	–
333.15 K	2.08	2.03	1.97	1.92	1.88	12.2	12.43	12.69	12.99	13.26
338.15 K	2.34	2.29	–	2.17	2.12	10.78	10.9	–	11.32	11.64

CCC[n+]1ccccc1.N#C[N-]C#N + O
Settings	electrical conductivity, x1 = 0.9305 [S/m]	electrical conductivity, x1 = 0.9444 [S/m]	electrical conductivity, x1 = 0.9588 [S/m]	electrical conductivity, x1 = 0.9735 [S/m]	electrical conductivity, x2 = 0.0114 [S/m]	viscosity, x1 = 0.9277 [mPa·s]	viscosity, x1 = 0.9416 [mPa·s]	viscosity, x1 = 0.9559 [mPa·s]	viscosity, x1 = 0.9705 [mPa·s]	viscosity, x2 = 0.0144 [mPa·s]
298.15 K	–	1.44	1.41	1.37	1.34	20.93	21.6	–	–	24.55
303.15 K	–	–	1.61	–	1.53	17.56	18.05	18.78	19.65	20.53
308.15 K	2.03	1.97	1.91	1.86	1.81	15.11	15.43	15.97	16.69	17.49
313.15 K	2.35	2.3	2.23	2.17	–	–	13.31	–	14.28	14.87
318.15 K	2.64	–	2.57	2.52	2.47	11.38	11.63	11.99	–	12.93
323.15 K	2.98	–	2.92	–	2.84	–	9.95	10.29	10.68	11.07
328.15 K	3.42	3.38	3.33	3.29	3.25	8.53	–	–	9.21	9.66
333.15 K	3.88	–	3.77	–	3.68	7.65	7.77	7.97	8.23	8.57
338.15 K	4.31	4.27	–	4.17	4.11	6.91	7.01	–	7.41	7.68

CC[n+]1ccccc1.N#C[N-]C#N + O
Settings	electrical conductivity, x1 = 0.9285 [S/m]	electrical conductivity, x1 = 0.9414 [S/m]	electrical conductivity, x1 = 0.9545 [S/m]	electrical conductivity, x1 = 0.9681 [S/m]	electrical conductivity, x2 = 0.0181 [S/m]	viscosity, x1 = 0.9353 [mPa·s]	viscosity, x1 = 0.9484 [mPa·s]	viscosity, x1 = 0.9617 [mPa·s]	viscosity, x1 = 0.9754 [mPa·s]	viscosity, x2 = 0.0105 [mPa·s]
298.15 K	2.27	–	2.06	–	1.86	14.98	15.27	15.62	16.02	–
303.15 K	2.46	2.37	–	2.18	2.08	12.98	13.23	13.58	–	14.38
308.15 K	2.75	2.66	–	2.48	2.39	11.41	11.59	11.87	12.17	–
313.15 K	3.05	2.98	2.9	–	2.74	–	10.26	–	10.73	–
318.15 K	3.39	3.33	–	3.18	3.1	8.95	9.11	9.32	9.52	9.75
323.15 K	3.85	3.78	3.7	3.61	3.54	7.77	7.9	8.08	–	8.44
328.15 K	4.34	4.26	4.18	4.08	4.01	7.01	7.13	7.28	–	7.61
333.15 K	–	–	4.7	–	4.48	6.35	6.45	6.58	6.73	6.88
338.15 K	5.47	5.34	5.24	5.11	5.01	–	–	5.98	–	6.22

CCn1cc[n+](C)c1.N[C@@H](CO)C(=O)[O-] + O
electrical conductivity [S/m]
Settings	303.15 K	308.15 K	313.15 K	318.15 K	323.15 K	328.15 K	333.15 K	338.15 K
x1 = 0.8695	0.102	0.14	0.176	–	0.276	0.348	–	0.526
x1 = 0.8836	0.1	0.138	0.174	–	0.273	–	–	0.522
x1 = 0.8982	0.0982	0.135	0.172	0.218	0.271	0.343	0.429	0.518
x1 = 0.9131	0.0964	–	–	0.216	–	0.341	0.426	0.515
x1 = 0.9275	–	0.13	–	0.213	0.266	0.338	0.423	–
